Test results as given in ChEMBL document CHEMBL4732026, “Benzimidazole-1,2,3-triazole hybrid molecules: synthesis and study of their interaction with G-quadruplex DNA” (RSC Med Chem, 2021).
Activity calls are given as the source filed them. The calls are words filed in the database; no cut-off is given here.

Tests used:
PC-3 [1] = experiment: Induction of apoptosis in human PC-3 cells assessed as viable cells at 50 uM after 48 hrs by Annexin V based flow cytometric analysis (reference value: 89.57%); assay type: functional; conditions: read-out: Activity
B16-F10 = experiment: Cytotoxicity against mouse B16-F10 cells assessed as reduction in cell viability measured after 72 hrs by MTT assay; assay type: functional, cell-based; conditions: B16-F10, 72 h
PC-3 [2] = experiment: Induction of apoptosis in human PC-3 cells assessed as necrotic cells at 50 uM after 48 hrs by Annexin V based flow cytometric analysis (reference value: 0.79%); assay type: functional
CHO-K1 [3] = experiment: Induction of apoptosis in CHO-K1 cells assessed as early apoptic cells at 65 uM after 48 hrs by Annexin V based flow cytometric analysis (reference value: 4.58%); assay type: cell-based, Cricetulus griseus; conditions: chinese hamster, cho-k1, 48 h
CHO-K1 [4] = experiment: Induction of apoptosis in CHO-K1 cells assessed as necrotic cells at 60 uM after 48 hrs by Annexin V based flow cytometric analysis (reference value: 0.70%); assay type: cell-based, Cricetulus griseus; conditions: chinese hamster, cho-k1, 48 h
dsDNA [5] = experiment: Binding affinity to double strand DNA (unknown origin) assessed as increase in viscosity at 15 uM by EtBr/Hoechst 33342 method; assay type: nucleic-acid assay
PC-3 [6] = experiment: Induction of apoptosis in human PC-3 cells assessed as necrotic cells at 55 uM after 48 hrs by Annexin V based flow cytometric analysis (reference value: 0.79%); assay type: functional
PC-3 [7] = experiment: Induction of apoptosis in human PC-3 cells assessed as late apoptic cells at 55 uM after 48 hrs by Annexin V based flow cytometric analysis (reference value: 9.24%); assay type: functional
PC-3 [8] = experiment: Induction of apoptosis in human PC-3 cells assessed as apoptotic cells at 55 uM incubated for 48 hrs by AnnexinV based flow cytometric analysis (reference value: 10.43%); assay type: functional
[9] = Induction of apoptosis in CHO-K1 cells assessed as viable cells at 65 uM after 48 hrs by Annexin V based flow cytometric analysis (reference value: 93.71%); assay type: cell-based, Cricetulus griseus; conditions: chinese hamster, read-out: Activity
CHO-K1 [10] = experiment: Induction of apoptosis in CHO-K1 cells assessed as early apoptic cells at 60 uM after 48 hrs by Annexin V based flow cytometric analysis (reference value: 4.58%); assay type: cell-based, Cricetulus griseus; conditions: chinese hamster, cho-k1, 48 h
CHO-K1 [11] = experiment: Induction of apoptosis in CHO-K1 cells assessed as apoptic cells at 60 uM after 48 hrs by Annexin V based flow cytometric analysis (reference value: 6.29%); assay type: cell-based, Cricetulus griseus; conditions: chinese hamster, cho-k1, 48 h
CHO-K1 [12] = experiment: Induction of apoptosis in CHO-K1 cells assessed as late apoptic cells at 60 uM after 48 hrs by Annexin V based flow cytometric analysis (reference value: 1.01%); assay type: cell-based, Cricetulus griseus; conditions: chinese hamster, cho-k1, 48 h
Quadruplex DNA [13] = experiment: Binding affinity to Tel Q G-quadruplex DNA (unknown origin) assessed as hyperchromicity at 8.5 uM incubated for 5 mins by UV- vis spectrophotometric analysis; assay type: nucleic-acid assay
PC-3 [14] = experiment: Induction of cell cycle arrest in human PC3 cells assessed as accumulation at G2/M phase at 50 uM after 48 hrs by propidium iodide staining based flow cytometry (reference value: 1.4%); assay type: functional
dsDNA [15] = experiment: Binding affinity to double strand DNA (unknown origin) assessed as hypsochromic shift at 8.5 uM incubated for 5 mins by UV- vis spectrophotometric analysis; assay type: nucleic-acid assay
PC-3 [16] = experiment: Induction of apoptosis in human PC-3 cells assessed as early apoptic cells at 50 uM after 48 hrs by Annexin V based flow cytometric analysis (reference value: 0.40%); assay type: functional
PC-3 [17] = experiment: Induction of apoptosis in human PC-3 cells assessed as viable cells at 55 uM after 48 hrs by Annexin V based flow cytometric analysis (reference value: 89.57%); assay type: functional; conditions: read-out: Activity
Quadruplex DNA [18] = experiment: Stabilization of Tel Q G-quadruplex DNA (unknown origin) assessed as change in melting temperature at 8.5 uM incubated for 5 mins by UV-visible thermal denaturation study; assay type: nucleic-acid assay
Quadruplex DNA [19] = experiment: Binding affinity to c-Myc G-quadruplex DNA (unknown origin) assessed as hyperchromicity at 8.5 uM incubated for 5 mins by UV- vis spectrophotometric analysis; assay type: nucleic-acid assay
Quadruplex DNA [20] = experiment: Binding affinity to Tel Q G-quadruplex DNA (unknown origin) assessed as hypsochromic shift at 8.5 uM incubated for 5 mins by UV- vis spectrophotometric analysis; assay type: nucleic-acid assay
PC-3 [21] = experiment: Induction of apoptosis in human PC-3 cells assessed as late apoptic cells at 50 uM after 48 hrs by Annexin V based flow cytometric analysis (reference value: 9.24%); assay type: functional
PC-3 [22] = experiment: Cytotoxicity against human PC3 cells assessed as reduction in cell viability measured after 72 hrs by MTT assay; assay type: functional, cell-based; conditions: PC-3, 72 h
PC-3 [23] = experiment: Induction of cell cycle arrest in human PC3 cells assessed as accumulation at G1 phase at 50 uM after 48 hrs by propidium iodide staining based flow cytometry (reference value: 5%); assay type: functional
[24] = Induction of apoptosis in CHO-K1 cells assessed as viable cells at 60 uM after 48 hrs by Annexin V based flow cytometric analysis (reference value: 93.71%); assay type: cell-based, Cricetulus griseus; conditions: chinese hamster, read-out: Activity
Quadruplex DNA [25] = experiment: Binding affinity to Tel Q G-quadruplex DNA (unknown origin) assessed as dissociation constant incubated for 5 mins by UV- vis spectrophotometric analysis; assay type: nucleic-acid assay
PC-3 [26] = experiment: Induction of cell cycle arrest in human PC3 cells assessed as accumulation at S phase at 50 uM after 48 hrs by propidium iodide staining based flow cytometry (reference value: 1.8%); assay type: functional
CHO-K1 [27] = experiment: Induction of apoptosis in CHO-K1 cells assessed as necrotic cells at 65 uM after 48 hrs by Annexin V based flow cytometric analysis (reference value: 0.70%); assay type: cell-based, Cricetulus griseus; conditions: chinese hamster, cho-k1, 48 h
PC-3 [28] = experiment: Induction of cell cycle arrest in human PC3 cells assessed as accumulation at G1 phase at 55 uM after 48 hrs by propidium iodide staining based flow cytometry (reference value: 5%); assay type: functional
Quadruplex DNA [29] = experiment: Binding affinity to Tel Q G-quadruplex DNA (unknown origin) assessed as increase in viscosity at 15 uM by EtBr/Hoechst 33342 method; assay type: nucleic-acid assay
Quadruplex DNA [30] = experiment: Binding affinity to c-Myc G-quadruplex DNA (unknown origin) assessed as increase in intensity of positive and negative peaks at 10 to 40 uM by circular dichroism spectra; assay type: nucleic-acid assay; conditions: dose 10-40 µM
Quadruplex DNA [31] = experiment: Binding affinity to c-Myc G-quadruplex DNA (unknown origin) assessed as increase in viscosity at 15 uM by EtBr/Hoechst 33342 method; assay type: nucleic-acid assay
Quadruplex DNA [32] = experiment: Binding affinity to Tel Q G-quadruplex DNA (unknown origin) assessed as increase in intensity of positive and negative peaks at 10 to 40 uM by circular dichroism spectra; assay type: nucleic-acid assay; conditions: dose 10-40 µM
CHO-K1 [33] = experiment: Cytotoxicity against […] cells assessed as reduction in cell viability measured after 72 hrs by MTT assay; assay type: cell-based; conditions: Cricetulus griseus, CHO-K1, 72 h
dsDNA [34] = experiment: Stabilization of double strand DNA (unknown origin) assessed as increase in life time of DNA and compound complex at 8.5 uM incubated for 5 mins by fluorescence lifetime study; assay type: nucleic-acid assay
Quadruplex DNA [35] = experiment: Stabilization of Tel Q G-quadruplex DNA (unknown origin) assessed as increase in life time of DNA and compound complex at 8.5 uM incubated for 5 mins by fluorescence lifetime study; assay type: nucleic-acid assay
CHO-K1 [36] = experiment: Induction of apoptosis in CHO-K1 cells assessed as apoptic cells at 65 uM after 48 hrs by Annexin V based flow cytometric analysis (reference value: 6.29%); assay type: cell-based, Cricetulus griseus; conditions: chinese hamster, cho-k1, 48 h

## O=C(Cn1cc(CSc2nc3cc(OC(F)F)ccc3[nH]2)nn1)NC1CCCCC1
PC-3 [1]
  viability at 50 µM: 87.3%
B16-F10
  IC50: 84.7 µM
PC-3 [2]
  Activity: 2.57%
CHO-K1 [3]
  Activity: 11.75%
CHO-K1 [4]
  Activity: 1.97%
dsDNA [5]
  Activity: inactive
PC-3 [6]
  Activity: 2.64%
PC-3 [7]
  Activity: 13.75%
PC-3 [8]
  Activity: 18.62%
[9]
  viability at 48 h, 65 µM: 84.4%
CHO-K1 [10]
  Activity: 10.39%
CHO-K1 [11]
  Activity: 13.98%
CHO-K1 [12]
  Activity: 1.62%
Quadruplex DNA [13]
  Activity: 37.1%
PC-3 [14]
  Activity: 9.6%
dsDNA [15]
  Activity: 5.6 nm
PC-3 [16]
  Activity: 0.76%
PC-3 [17]
  viability at 55 µM: 81.4%
Quadruplex DNA [18]
  ΔTm: 14 °C
Quadruplex DNA [19]
  Activity: 27.3%
Quadruplex DNA [20]
  Activity: 2.5 nm
PC-3 [21]
  Activity: 9.39%
PC-3 [22]
  IC50: 53.3 µM
PC-3 [23]
  Activity: 8.9%
[24]
  viability at 48 h, 60 µM: 86%
Quadruplex DNA [25]
  Kd: 72.3 µM
PC-3 [26]
  Activity: 5.3%
CHO-K1 [27]
  Activity: 1.72%
PC-3 [28]
  Activity: 18.2%
Quadruplex DNA [29]
  Activity: Active
Quadruplex DNA [30]
  Activity: Active
Quadruplex DNA [31]
  Activity: Active
Quadruplex DNA [32]
  Activity: Active
CHO-K1 [33]
  IC50: 62.9 µM
dsDNA [34]
  Activity: Active
Quadruplex DNA [35]
  Activity: Active
CHO-K1 [36]
  Activity: 15.63%
